Laboratory results reported in patent US8569358B2, “Use of silymarin and/or constituents thereof as skin or hair pigmentation promoters” (GreenPharma, priority 2005, dated 2013).
Several values for one entry are separate records, joined by “and”; a condition that tells them apart may be missing. Equal entries are not always repeated. Values belong to the compound of their own block, whether it stands above or below them.

What was measured:
[1] = molecular target: T1, receptor MC1-R (melanocortin-1 receptor) (Mus musculus, UniProt Q01727); conditions: of the order of; read-out: Affinity of the ligand for MC1-R; cited from earlier work
T1 sequence (Q01727 whole entry): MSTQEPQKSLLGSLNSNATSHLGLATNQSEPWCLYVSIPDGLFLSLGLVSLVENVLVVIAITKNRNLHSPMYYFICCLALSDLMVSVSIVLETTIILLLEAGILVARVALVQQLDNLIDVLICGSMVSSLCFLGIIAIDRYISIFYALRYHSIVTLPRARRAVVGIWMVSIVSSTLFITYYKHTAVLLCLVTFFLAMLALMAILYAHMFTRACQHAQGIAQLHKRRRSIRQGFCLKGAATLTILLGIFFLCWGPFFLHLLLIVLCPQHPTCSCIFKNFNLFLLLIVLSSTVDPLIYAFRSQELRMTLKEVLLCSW

[2] = test system: normal human melanocytes; assay: Proliferation (3H-thymidine incorporation), normal human melanocytes; format: cell-based; conditions: 3 days; for Proliferation (3H-thymidine), cpm: labelling last 24 hours
Protocol: (§1) after culturing for 3 days under standard conditions:
the effects on the proliferation of normal human melanocytes by incorporation of tritiated thymidine into DNA (labelling for the last 24 hours),

[3] = test system: normal human melanocytes; assay: Cytotoxicity (MTT reduction) and amount of proteins (Bradford), normal human melanocyte cultures; format: cell-based; conditions: for Proteins / MTT: 10 days; for MTT: control = 100
Excerpt: (§2) after culturing for 10 days under standard conditions, in 24-well plates, in Promocell medium free of “phorbol myristate acetate” (PMA):
the cytotoxicity, by estimating the reduction of “methyl thiazolyl tetrazolium” (MTT), the amount of proteins, by assay according to the Bradford method and observation of the cell lawns, […]

[4] = test system: B16F10-line mouse melanoma cells; assay: Melanin synthesis by B16F10-line melanocytes (7-day culture); format: cell-based; conditions: 7 days
Protocol: The melanogenesis-stimulating effect of silybin was measured on B16F10-line mouse melanoma cells.
(§3) For silybin, the following were determined:
(§4) after culturing for 7 days under standard conditions, in 24-well plates, DMEM medium containing 10% calf serum:
the amount of melanin present in the cultures, by spectrophotometric measurement of the melanin produced, after alkaline extraction, relative to 100% of the control (the control corresponds to the test performed without test compound).

[5] = test system: normal human melanocytes; assay: Protein synthesis (3H-leucine incorporation), normal human melanocytes; format: cell-based; conditions: for Protein synthesis (3H-leucine), % of control / Protein synthesis (3H-leucine), cpm: 3 days; for Protein synthesis (3H-leucine), cpm: labelling last 24 hours
Protocol: as §1
the effects on the metabolism of normal human melanocytes by incorporation of tritiated leucine into neosynthesized proteins (labelling for the last 24 hours).

[6] = test system: normal human hair follicles; assay: Protection against degeneration of cultured human hair follicles; format: cell-based; conditions: precultured 7 days, then treated 7 days
Excerpt: The aim of this test is to show the effect of the compounds used according to the invention on degeneration of the follicles in in vitro cultures of human hair follicles.
Method: Normal human hair follicles are isolated by microdissection of human scalp (lifting) and cultured as in Example 4. The bulbs are all precultured (“aged”, without treatment) for 7 days (D7), and then left untreated or treated by the invention for a further 7 days (D14). The follicles are photographed and the morphology is analysed.

[7] = test system: keratinocytes; assay: Proliferation/protein synthesis of keratinocytes; format: cell-based
[8] = test system: normal human keratinocytes; assay: Phagocytosis of fluorescent beads by keratinocytes (flow cytometry); format: cell-based; conditions: for % Positive cells (cells which have phagocytozed more than twice the basal phagocytosis), single replicates / Positive cells, % Control / % Positive cells, Mean: 24 hours; for % Positive cells, Mean: triplicate
Protocol: The aim of this test is to show the effect of the compounds used according to the invention on modulation of the phagocytosis of particles by the keratinocytes.
Method: Normal human keratinocytes are cultured in KSFM medium and treated for 24 hours with the compounds according to the invention, in the presence of calibrated fluorescent beads (Molecular Probes) of the size of melanosomes. The phagocytosis of the particles is visualized by fluorescence microscopy, and the cells are then harvested after trypsination and analysed by flow cytometry, to determine the number of cells that have phagocytozed a threshold number of particles and the intensity of the phagocytozed overall fluorescence (10 000 cells analysed per condition, in triplicate).

[9] = test system: normal human melanocytes; assay: Melanin synthesis by normal human melanocytes (10-day culture); format: cell-based; conditions: 10 days
Protocol: The melanogenesis-stimulating effect of silybin was measured on normal human melanocyte cultures.
as §3, §2
the amount of melanin present in the cultures, by spectrophotometric measurement of the melanin produced, after alkaline extraction, relative to 100% of the control (the control corresponds to the test performed without test compound);

[10] = molecular target: T1, receptor MC1-R (melanocortin-1 receptor); assay: Displacement of [125I]NDP-alpha-MSH from receptor MC1-R; format: binding
Protocol: The binding of silybin to the receptor MC1-R (melanocortin-1 receptor) was studied.
Silybin was tested in a test of displacement of an extremely powerful MC1-R ligand: displacement of [^125I]NDP-alpha-MSH, (according to Siegrist et al, 1988, J. Recept. Res., 8: 323-343).

[11] = test system: B16F10-line mouse melanoma cells; assay: Cytotoxicity (MTT) and amount of proteins (Bradford), B16F10 cultures; format: cell-based; conditions: for Proteins / MTT: 7 days; for MTT: control = 100
Excerpt: as §4
the cytotoxicity, by estimating the […] of MTT, the amount of proteins, by assay according to the Bradford method and observation of the cell lawns, […]

Compound: [^125I]NDP-alpha-MSH
Kd [1]: ~0.1 nM

Displacement of [125I]NDP-alpha-MSH ([10]; at 100 μM (0.005%)): 10%
Displacement of [125I]NDP-alpha-MSH ([10]; at 500 μM): 30%
Compound: COc1cc(C2Oc3cc([C@H]4Oc5cc(O)cc(O)c5C(=O)[C@@H]4O)ccc3OC2CO)ccc1O (stereo partly drawn) [Silybin, 2-[(2R,3R)-2,3-dihydro-3-(4-hydroxy-3-methoxyphenyl)-2-(hydroxymethyl)-1,4-benzodioxin-6-yl]-2,3-dihydro-3,5,7-trihydroxy-4H-1-benzopyran-4-one, (2R,3R)-(9CI)]
Proliferation (3H-thymidine), % of control ([2]; 0.0002%): 83%
Proliferation (3H-thymidine), cpm ([2]; 0.0002%): 5638 cpm
Proliferation (3H-thymidine), % of control ([2]; 0.001%): 53%
Proliferation (3H-thymidine), cpm ([2]; 0.001%): 3622 cpm
Proteins ([3]; 0.00004% (w/v)): 0.765 mg/mL
MTT ([3]; 0.00004% (w/v)): 113%
Proteins ([3]; 0.0002% (w/v)): 0.792 mg/mL
MTT ([3]; 0.0002% (w/v)): 126%
Proteins ([3]; 0.001% (w/v)): 0.830 mg/mL
MTT ([3]; 0.001% (w/v)): 128%
Cytotoxic activity (in words) ([3]; normal human melanocytes): without any cytotoxic activity
Melanin ([4]; 0.00004%): 13.0 µg/mL
Melanin, % relative to 100% of the control ([4]; 0.00004%): 100%
Melanin ([4]; 0.0002%): 15.0 µg/mL
Melanin, % relative to 100% of the control ([4]; 0.0002%): 115%
Melanin ([4]; 0.001%): 33.0 µg/mL
Melanin, % relative to 100% of the control ([4]; 0.001%): 250% and 254%
Protein synthesis (3H-leucine), % of control ([5]; 0.0002%): 120%
Protein synthesis (3H-leucine), cpm ([5]; 0.0002%): 11705 cpm
Protein synthesis (3H-leucine), % of control ([5]; 0.001%): 124%
Protein synthesis (3H-leucine), cpm ([5]; 0.001%): 12099 cpm
Protein synthesis increase ([5]; protein neosynthesis over 72 hours): 20%
Pigmentation of the hair root [6]: display pigmentation of all of the hair root
Effect on proliferation/protein synthesis of keratinocytes [7]: did not otherwise show any effect
% Positive cells (cells which have phagocytozed more than twice the basal phagocytosis), single replicates ([8]; 0.0002%): 44.29% and 42.92% and 45.88%
Positive cells, % Control ([8]; 0.0002%): 124%
% Positive cells, Mean ([8]; 0.0002%): 44%
% Positive cells (cells which have phagocytozed more than twice the basal phagocytosis), single replicates ([8]; 0.001%): 52.19% and 50.74% and 49.94%
Positive cells, % Control ([8]; 0.001%): 143%
% Positive cells, Mean ([8]; 0.001%): 51%
Phagocytosis of fluorescent particles (in words) ([8]; flow cytometry and fluorescence microscopy): significant and reproducible stimulation of phagocytosis
Melanin ([9]; 0.00004% (w/v)): 31.9 µg/mL
Melanin, % relative to 100% of the control ([9]; 0.00004% (w/v)): 115%
Melanin ([9]; 0.0002% (w/v)): 37.1 µg/mL
Melanin, % relative to 100% of the control ([9]; 0.0002% (w/v)): 134%
Melanin ([9]; 0.001% (w/v)): 41.5 µg/mL
Melanin, % relative to 100% of the control ([9]; 0.001% (w/v)): 150%
Proteins ([11]; 0.00004%): 1.553 mg/mL
MTT ([11]; 0.00004%): 100%
Proteins ([11]; 0.0002%): 1.594 mg/mL
MTT ([11]; 0.0002%): 100%
Proteins ([11]; 0.001%): 1.457 mg/mL
MTT ([11]; 0.001%): 89%
Cell metabolism according to MTT and protein synthesis parameters (in words) ([11]; B16F10): without modification of the cell metabolism
